Read-outs that look alike come from different tables or passages of the source.
Key:
Bcl-w = molecular target: T1, Bcl-w (Homo sapiens, UniProt Q92843); assay: biochemical; parameters: AlphaLISA competitive displacement of biotin-tagged BAD or BIM peptide from His-tagged Bcl-2 family protein
T1 construct: gene BCL2L2; Purified recombinant His-tagged Bcl-w
T1 sequence (Q92843 2-193): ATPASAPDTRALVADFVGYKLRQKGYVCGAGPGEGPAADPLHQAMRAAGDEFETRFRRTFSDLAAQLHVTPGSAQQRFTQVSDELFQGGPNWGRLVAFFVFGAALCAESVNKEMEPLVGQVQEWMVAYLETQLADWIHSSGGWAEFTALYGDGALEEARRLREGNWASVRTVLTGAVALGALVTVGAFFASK
Method: Purified recombinant His-tagged Bcl-xl, His-tagged Bcl-2 and His-tagged Bcl-w (Cat. No. SRP0187 for Bcl-xl, Cat. No. SRP0186 for Bcl-2 and Cat. No. B1059 for Bcl-w, Sigma-Aldrich) were incubated with increasing concentrations of compounds and a fixed concentration of biotin-tagged BAD (Cat No. SQ-ASPE-66592-1, AnaSpec, Fremont, CA) (for Bcl-xl) or BIM (Cat. No. SQ-ASPE-66592-2, AnaSpec) (for Bcl-2 and Bcl-w) peptides to a final volume of 40 µL in 96-well PCR plates. After 24 h incubation, 5 µL 6X His-Acceptor beads (final concentration 20 µg/mL) (Cat. No. AL128M, Perkin-Elmer, Waltham, MA, USA) were added to each well and incubated for 1 h. Thereafter, 5 µL streptavidin-donor beads were added (final concentration of 20 µg/mL) (Cat. No. 6760002, Perkin-Elmer) to each well and incubated for 30 min. At the end of the incubation period, 17 µL of each sample was transferred into adjacent wells of 384-well proxy plate (Cat. No. 6008280, Perkin-Elmer). The plate was scanned using Alpha program on a Biotek’s Synergy Neo2 multi-mode plate reader (Winooski, VT, USA). Gen5 version 3.04 software (BioTek, USA) was used for the AlphaLISA signal measurements. The inhibition constant (Ki) was calculated using non-linear regression, one site, competitive binding, fit Ki function on GraphPad Prism 7 software based on experimentally determined Kd for each protein/peptide pair.

Bcl-xl = molecular target: T2, Bcl-xl (Homo sapiens, UniProt Q07817); assay: AlphaLISA/AlphaScreen competitive binding with biotin-tagged BAD peptide
T2 construct: gene BCL2L1; Purified recombinant His-tagged Bcl-xl

Bcl-2 = molecular target: T3, Bcl-2 (Homo sapiens, UniProt P10415); parameters: AlphaLISA competitive displacement of biotin-tagged BAD or BIM peptide from His-tagged Bcl-2 family protein; conditions: inhibitor
T3 construct: gene BCL2; Purified recombinant His-tagged Bcl-2

cereblon (CRBN) = cereblon (CRBN) (Homo sapiens, UniProt Q96SW2); assay: CRBN-dependent Bcl-xl degradation in WI38 cells: CRBN knockout, pomalidomide competition, N-methyl negative control; type: cell-based

SMILES	Ki (Bcl-w) [nM]	Ki (Bcl-xl) [nM]	Ki (Bcl-2) [nM]	Ki (Bcl-w; inhibitor) [nM]	CRBN-dependent Bcl-xl degradation in WI38 cells: CRBN knockout, pomalidomide com (cereblon (CRBN))
CC1(C)CCC(c2ccc(Cl)cc2)=C(CN2CCN(c3ccc(C(=O)NS(=O)(=O)c4ccc(N[C@H](CCN5CCOCC5)CSc5ccccc5)c(S(=O)(=O)C(F)(F)F)c4)cc3)CC2)C1 [ABT263]	8.5				
CC1(C)CCC(c2ccc(Cl)cc2)=C(CN2CCN(c3ccc(C(=O)NS(=O)(=O)c4ccc(N[C@H](CCN5CCN(C(=O)CCCn6cc(COCCOCCNc7cccc8c7C(=O)N(C7CCC(=O)NC7=O)C8=O)nn6)CC5)CSc5ccccc5)c(S(=O)(=O)C(F)(F)F)c4)cc3)CC2)C1 (some centres unmarked) [PZ, PZ15227]		1.9	3.52	> 1000	PZ had no effect on the levels of Bcl-xl in CRBN knockout cells (Fig. 2e)

— paper PMC7181703, “Using proteolysis-targeting chimera technology to reduce navitoclax platelet toxicity and improve its senolytic activity” (Nature Communications, 2020)
